The source of these data is US10070889B2, “Inorganic pyrophosphate and uses thereof” (The Curators of the University of Missouri, priority 2011, dated 2018).

Like-named read-outs stand apart in the source and are kept apart here. Where a SMILES comes first, the peptide text is derived from it. The star is where a group is joined. Cbz = O=C(OCc1ccccc1)*

For experiment [1], the system named is boar spermatozoa. As to conditions: stored in BTS with 10 μM PPi. As for the experimental part: Boar spermatozoa were washed twice with PBS-PVA, and sperm concentration was adjusted to 1×10^6 spermatozoa/ml in PBS-PVA. The sperm viability was assessed by LIVE/DEAD® Sperm Viability Kit (L-7011, Molecular Probes) which contains DNA dyes SYBR14 and propidium iodide (PI), following a manufacturer's protocol. Sperm samples (198 μl) were loaded onto a 96-well plate. SYBR14 (1 μl; final conc. 100 nM) and PI (1 μl; final conc. 12 μM) were added to sperm samples and incubated for 10 min at 37.5° C. in darkness. Flow cytometric analysis was performed using a Guava EasyCyte™ Plus flow cytometer (Guava Technologies, IMV Technologies, L'Aigle, France). For each sample, 5,000 events were analyzed by the Guava ExpressPro Assay program, using standard manufacturer settings. For assessment of sperm mitopotential, boar spermatozoa were stained with JC-1 (Cat. No. 4500-0250, MitoPotential Kit, IMV), and measured using manufacturer settings. For negative controls, DMSO or no staining solution was added to sperm samples.
Following an industry practice for boar semen storage, fresh boar semen was diluted in BTS extender and stored at room temperature (15-17° C.) for 10 days. […] As described above, sperm viability was assessed by flow cytometry using a SYBR14/PI viability kit and mitopotential was measured with JC-1 dye.

Experiment [2] concerns 20S chymotrypsin-like peptidyl-glutamylpeptide hydrolyzing [PGPH] activity. As to conditions: other treatments 363.1-386.1. As for the experimental part: (§1) The proteasomal-proteolytic and deubiquitinating activities, which are essential for fertilization, were assayed using specific fluorometric substrates Z-LLL-AMC, Z-LLVY-AMC, Z-LLE-AMC and ubiquitin-AMCs in spermatozoa stored for 3 and 10 days, with or without PPi. Alternatively, 10 μM PPi+BTS was added to semen preserved without PPi at the time of assay (“Add PPi” treatment). As a negative control, 10 μM MG132 (a proteasomal inhibitor) was added to sperm samples before assay.
(§2) Spermatozoa preserved in BTS with and without 10 μM PPi were loaded into a 96-well black plate (final sperm conc. 1×10^6 spermatozoa/ml), and incubated at 37.5° C. with Z-LLE-AMC (a specific substrate for 20S chymotrypsin-like peptidyl-glutamylpeptide hydrolyzing [PGPH] activity not sensitive to MG132; final conc. 100 μM; Enzo Life Sciences, Plymouth, Pa.), Z-LLVY-AMC (a specific substrate for 20S proteasome and other chymotrypsin-like proteases, as well as calpains; final conc. 100 μM; Enzo), Z-LLL-AMC (a specific substrate for 20S chymotrypsin-like activity sensitive to proteasomal inhibitor MG132; final conc. 100 μM; BostonBiochem, Cambridge, Mass.) or ubiquitin-AMC (specific substrate for ubiquitin-C-terminal hydrolase activity; final conc. 1 μM; Enzo) for 1 h. Fluorogenic proteasomal core substrates are composed of a small peptide (LLL/LLE/LLVY) coupled to a fluorescent probe, aminomethylcoumarin (AMC). […] In the presence of appropriate 20S core activity, the AMC molecule is cleaved off and becomes fluorescent. This emitted fluorescence was measured every 10 min for a period of 1 h, yielding a curve of relative fluorescence (no units). Fluorescence intensity was measured by Thermo Fluoroskan Ascent (Thermo Scientific), using a 380 nm excitation and 460 nm emission.

The subject of experiment [3] is 20S proteasome and other chymotrypsin-like proteases, as well as calpains. Particulars: PPi+BTS and Add PPi treatments, 10 μM PPi; controls 85.7. As for the experimental part: as §1, §2
Experiment [4] has as its system ubiquitin-C-terminal hydrolase activity. Particulars: PPi+BTS (stored with 10 μM PPi), day 10; other treatments 98.4-122.7. As for the experimental part: as §1, §2
Experiment [5] deals with 20S chymotrypsin-like activity sensitive to proteasomal inhibitor MG132. Kind of experiment: Proteasomal activity of stored spermatozoa, fluorometric substrate Z-LLL-AMC. It counts as cell-based, boar.
Method: Spermatozoa preserved in BTS with and without 10 μM PPi were loaded into a 96-well black plate (final sperm conc. 1×10^6 spermatozoa/ml), and incubated at 37.5° C. with Z-LLE-AMC (a specific substrate for 20S chymotrypsin-like peptidyl-glutamylpeptide hydrolyzing [PGPH] activity not sensitive to MG132; final conc. 100 μM; Enzo Life Sciences, Plymouth, Pa.), Z-LLVY-AMC (a specific substrate for 20S proteasome and other chymotrypsin-like proteases, as well as calpains; final conc. 100 μM; Enzo), Z-LLL-AMC (a specific substrate for 20S chymotrypsin-like activity sensitive to proteasomal inhibitor MG132; final conc. 100 μM; BostonBiochem, Cambridge, Mass.) or ubiquitin-AMC (specific substrate for ubiquitin-C-terminal hydrolase activity; final conc. 1 μM; Enzo) for 1 h. […] In the presence of appropriate 20S core activity, the AMC molecule is cleaved off and becomes fluorescent. This emitted fluorescence was measured every 10 min for a period of 1 h, yielding a curve of relative fluorescence (no units). Fluorescence intensity was measured by Thermo Fluoroskan Ascent (Thermo Scientific), using a 380 nm excitation and 460 nm emission.
In experiment [6] the test system is porcine oocytes inseminated with boar spermatozoa. Kind of experiment: Porcine in vitro fertilization (IVF), total and polyspermic fertilization rates. It counts as cell-based. As for the experimental part: Thereafter, 25-30 oocytes were placed into each of four 50 μl drops of the mTBM medium, which had been covered with mineral oil in a 35 mm polystyrene culture dish. The dishes were allowed to equilibrate in the incubator for 30 min until spermatozoa were added for fertilization. […] At the end of the washing procedure, the spermatozoa were resuspended in mTBM medium. After appropriate dilution, 50 μl of this sperm suspension was added to 50 μl of the medium that contained oocytes to give a final sperm concentrations of 1-10×10^5 spermatozoa/ml. Different concentrations of inorganic pyrophosphate (PPi; […], Sigma) were added to fertilization drops (final concentrations; 0-20 μM) at the time of sperm addition. Oocytes were co-incubated with spermatozoa for 6 h at 38.5° C., 5% CO2. At 6 h after IVF, oocytes were transferred into 100 μl NCSU23 containing 0.4% BSA ([…], Sigma) for further culture during 16-20 h.

Experiment [7] relates to boar spermatozoa bound to porcine oocyte zona pellucida.
Method: Spermatozoa/oocytes were fixed in 2% formaldehyde for 40 min at room temperature, washed, permeabilized in PBS with 0.1% Triton-X-100 (PBS-TX), and blocked for 25 min in PBS-TX containing 5% normal goat serum. […] In order to count the number of spermatozoa bound to zona pellucida or acrosome reacted spermatozoa, oocyte were fixed and stained with DAPI and acrosome-binding lectin PNA-FITC (Molecular Probes) after IVF 30 min (5×10^5 spermatozoa/ml). Image acquisition was performed on a Nikon Eclipse 800 microscope (Nikon Instruments Inc., Melville, N.Y.) with Cool Snap camera (Roper Scientific, Tucson, Ariz.) and MetaMorph software (Universal Imaging Corp., Downington, Pa.).
Experiment [8] concerns boar spermatozoa. Particulars: BTS-IMV+10 μM PPi, day 6, vs all other groups.
Method: Values are expressed as the mean±SEM. […] Values are expressed as the mean percentages ±SEM. […] (C) Effect of PPi supplementation on the viability of spermatozoa stored in commercial and custom made BTS extenders. Boar spermatozoa were preserved in BTS-IMV (IMV technologies, France) or BTS-HM (homemade) with and without 10 μM PPi for 7 days at room temperature. Sperm motilities were evaluated by observation under light microscopy at 37.5° C. […] Experiments were repeated twice.
Semen was collected from proven fertile adult Duroc boars 15-22 months of age under the guidance of approved Animal Care and Use Committee (ACUC) protocols of the University of Missouri-Columbia (UM-C). The boars were placed on a routine collection schedule of one collection per week. The sperm-rich fraction of ejaculate was collected into an insulated vacuum bottle. Sperm-rich fractions of ejaculates with greater than 85% motile spermatozoa were used. Semen volumes were determined with a graduated cylinder. Sperm concentrations were estimated by a hemocytometer (Fisher Scientific, Houston, Tex.). The percentage of motile spermatozoa was estimated at 38.5° C. by light microscopy at 250× magnification. […]
Another experiment has as its system sperm diluted in BTS. Particulars: added to sperm diluted in BTS, after 6 days of cooling; cited from earlier work.

Regarding `O=P(O)(O)OP(=O)(O)O` [PPi, inorganic pyrophosphate], in the experiment with boar spermatozoa [1] (day 3, JC-1), the “content of metabolically active spermatozoa with polarized mitochondrial membranes” value is reported as “augmented”. Further, the “percentage of live spermatozoa vs control spermatozoa” value in the experiment on boar spermatozoa [1] (storage days 3 and 10, SYBR14/PI) is “no significant difference”. Besides, the “chymotrypsin-like PGPH activity (Z-LLE-AMC), relative fluorescence” value came out at 392.1 in [2] (Add PPi treatment (10 μM PPi added at time of assay), day 3) and 388 in [2] (PPi+BTS (stored with 10 μM PPi), day 10). Further, the “chymotrypsin-like proteasomal core activity (Z-LLVY-AMC), fluorescence intensity” value in [3] is reported as 110.8-121.5. Besides, the “deubiquitinating activity (ubiquitin-AMC), relative fluorescence” value in experiment [4] is on record as 138.9. Besides, in [5] (10 μM PPi treatments vs no PPi, 1 h measurement), the “chymotrypsin-like activity (Z-LLL-AMC)” value is given as “no differences between treatments”. Moreover, in [6] (10 μM PPi in IVF medium, 1×10^6 spermatozoa/ml), the polyspermy came out at 84.9%. Moreover, the “percentage of total and polyspermic fertilization at reduced sperm concentrations” value in [6] (10 μM PPi, 1, 2 and 5×10^5 spermatozoa/ml, significant at 5×10^5) is recorded as “augmented”. Moreover, in experiment [6] (100-500 μM PPi added into IVF medium), the “fertilization rates with excess PPi” value is reported as “decreased fertilization rates in a dose-dependent manner”. Further, the “rates of total and polyspermic fertilization” value in [6] (increasing concentrations of PPi (up to 10 μM) in IVF medium, 1×10^6 spermatozoa/ml) is “increased significantly and progressively”. Also, the “combined (mono+polyspermic) fertilization rate, spermatozoa preserved with PPi” value in [6] (preserved with 10 μM PPi in BTS 3-4 days, IVF with or without PPi (FIG. 7D third, fourth column)) is given as “highest”. Further, the fertilization in experiment [6] (spermatozoa stored in BTS-IMV with 10 μM PPi for 3 days, below 70% without PPi) is recorded as roughly 100%. In addition, the “fertilization rates, spermatozoa stored without PPi, PPi added during IVF” value in experiment [6] (stored 3-4 days in BTS without PPi, IVF with 10 μM PPi (FIG. 7D second column)) is given as “higher”. Further, the “percentage of acrosome-reacted spermatozoa” value in experiment [7] (20 μM PPi vs 0-15 μM PPi) is given as “significantly higher”. The “mean number of spermatozoa bound to ZP” value in experiment [7] (increasing concentrations of PPi, 30 min, 5×10^5 spermatozoa/ml) was “decreased slightly, but not significantly”. The sperm motility entry with boar spermatozoa [8] is “Higher”.
On to `CC(C)C[C@@H](C=O)NC(=O)[C@H](CC(C)C)NC(=O)[C@H](CC(C)C)NC(=O)OCc1ccccc1` [MG132, reference compound] (Cbz-Leu-Leu-Leu-aldehyde), for which, in experiment [5] (10 μM MG132 added before assay, day 3), the “chymotrypsin-like activity in spermatozoa” value is recorded as “low”.
For the molecule prostaglandin F2α [PGF2α], the “sperm viability and motility” value in the experiment with sperm diluted in BTS was “maintained better sperm viability and motility”.
